Target: 72 kDa type IV collagenase (Homo sapiens) (UniProt P08253)
Test: Inhibition of Matrix metalloprotease-2 at 50 uM

Chain of 72 kDa type IV collagenase (Homo sapiens) (P08253 110-660 limits assumed): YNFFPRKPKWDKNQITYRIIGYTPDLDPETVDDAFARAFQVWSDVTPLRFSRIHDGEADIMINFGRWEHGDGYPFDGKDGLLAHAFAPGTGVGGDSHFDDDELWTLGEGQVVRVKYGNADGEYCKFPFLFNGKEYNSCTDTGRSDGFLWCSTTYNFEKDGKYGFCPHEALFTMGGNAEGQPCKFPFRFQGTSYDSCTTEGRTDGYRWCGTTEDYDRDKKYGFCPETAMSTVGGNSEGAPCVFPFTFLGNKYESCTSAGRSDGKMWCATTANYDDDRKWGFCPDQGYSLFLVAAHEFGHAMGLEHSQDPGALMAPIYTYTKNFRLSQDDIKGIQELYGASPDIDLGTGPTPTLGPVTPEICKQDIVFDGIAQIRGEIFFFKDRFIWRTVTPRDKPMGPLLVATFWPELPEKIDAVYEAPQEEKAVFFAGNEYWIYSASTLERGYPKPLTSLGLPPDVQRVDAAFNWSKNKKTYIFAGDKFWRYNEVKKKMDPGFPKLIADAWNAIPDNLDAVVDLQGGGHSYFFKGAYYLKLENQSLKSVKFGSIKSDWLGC

Row | Compound | inhibition [%]
1 | CC1(C)OB(/C=C/CP(=O)(O)O)OC1(C)C | 75
2 | O=P(O)(O)CB(O)O | 0
3 | CCCCCC(B1OC(C)(C)C(C)(C)O1)P(=O)(O)O (configuration not stated) | 50
4 | CC1(C)OB(CP(=O)(O)O)OC1(C)C | 50
5 | COP(=O)(CC1OC(C)(C)C(C)(C)O1)OC | 0
6 | CC1(C)OB(C(Cc2ccccc2)P(=O)(O)O)OC1(C)C (configuration not stated) | 40
7 | CC1(C)OB(C(CCCCl)P(=O)(O)O)OC1(C)C (configuration not stated) | 55
